Results from patent US8871794B2, “Small-molecule agonists for type-2 orexin receptor” (Board of Regents, The University of Texas System, priority 2008, dated 2014).
Read-outs that look alike come from different tables or passages of the source.

Key:
OX2R [1] = biological target: T1, OX2R (Homo sapiens, UniProt O43614); test: CRE reporter assay, OX2R; format: cell-based; design: expressed in transfected cells; host or cells: HEK293T cells, transient co-transfection
T1 sequence (O43614 1-444): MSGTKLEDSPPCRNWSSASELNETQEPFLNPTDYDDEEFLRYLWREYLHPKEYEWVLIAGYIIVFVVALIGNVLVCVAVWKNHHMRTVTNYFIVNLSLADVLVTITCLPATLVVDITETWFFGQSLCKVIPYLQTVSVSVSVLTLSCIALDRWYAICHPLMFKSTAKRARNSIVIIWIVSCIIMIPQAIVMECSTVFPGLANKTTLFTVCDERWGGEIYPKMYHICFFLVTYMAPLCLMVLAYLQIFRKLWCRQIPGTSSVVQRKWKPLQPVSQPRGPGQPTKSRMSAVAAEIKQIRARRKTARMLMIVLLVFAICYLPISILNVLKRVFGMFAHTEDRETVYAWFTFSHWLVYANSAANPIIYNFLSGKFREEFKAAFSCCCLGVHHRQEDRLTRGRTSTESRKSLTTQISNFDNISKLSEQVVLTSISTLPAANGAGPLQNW

[2] = IP pharmacokinetics in C57BL/6 mice (plasma and brain); format: in vivo, mouse; conditions: 30 mg/kg IP, one of the two mice
OX2R [3] = biological target: T1, OX2R; test: Intracellular Calcium Transient Assay in OX2R-expressing CHO cells; format: cell-based; design: expressed in transfected cells
Procedure: DNA Construction: Open reading frames of OX1R, OX2R and GRP (control) receptor were inserted into a bicistronic retrovirus expression vector, pMXs-IRES-puror (pMXs-IP), which carried a FLAG™ epitope cDNA sequence at the beginning of the ORF sequences encoding their human polypeptides.
Transfection and retrovirus production: Transfection was carried out using FuGENE 6 (Roche Diagnostics Corp.) according to the manufacturer's recommendations. Retroviruse fluid was harvested after 48 hours post transfection.
Cell lines: To generate receptor expressing cells, CHO cells harboring ecotropic retroviral receptor were infected with a retroviral supernatant. After 24 hours post infection, the retrovirus supernatant was removed and infected cells were selected with 10 μg/ml of puromycin (Sigma-Aldrich, St. Louis, Mo.). […]
0.5 ml aliquot of the cell suspension was stimulated by addition of 5 μl of compound dissolved in DMSO. Changes of [Ca^2+]i transients in cells were measured at RT by using CAF-110 Intracellular Ion Analyser (JASCO, Tokyo) with the excitation wave lengths of 340 nm and 380 nm and emission wavelength of 500 nm

[4] = Metabolism in mouse CD-1 S9 fractions (phase I, phase I+II); format: in vitro ADME; conditions: for half-life at 2 μM: CD-1, mouse, S9 fractions (hepatocyte S9)
Procedure: Metabolism: 2 μM Yan7874 was incubated in 1 ml 0.1 M Tris/0.5% NaHCO3/3 mm MgCl2 solution with 1 mg mouse CD-1 S9 protein (In Vitro Technologies, Baltimore, Md.) at 37° C. Cofactors necessary for phase I and II metabolism were added as recommended by In Vitro Technologies (phase I: 1.7 mg/ml NADP, 7.8 mg/ml glucose-6-phophate, 6 U/ml glucose-6-phosphate dehydrogenase; phase II additionally add 1.9 mg/ml uridine 5′-diphospho-α-D-glucuronic acid and 100 μg/ml 3′-phosphoadenosine-5′-phophosulphate). Protein was precipitated by the addition of 1 volume of methanol. Samples in 50:50 buffer:methanol+0.1% added formic acid were analyzed as follows. An analytical method was developed to detect Yan7874 using LC/MS/MS. […] The fraction of parent compound remaining was plotted over time and a curve fit to the data. The time at which 50% of compound remains is designated the in vitro half-life.

reporter activation in a distinct CRE reporter system (OX2R [1]): confirmed reporter activation | Fold Induction, OX2R_CRE (OX2R [1]; CRE reporter): 5.1935 | Ca2+ response (OX2R [3]): robust Ca2+ response | stability in vitro using hepatocyte S9 fractions ([4]; 2 μM, mouse CD-1 S9, 37° C.): relatively stable | half-life at 2 μM ([4]; Phase I+II, read-out: half-life for in vitro combined Phase I+II metabolism in S9 fractions): 0.933 h | half-life at 2 μM ([4]; Phase I, read-out: half-life for in vitro Phase I metabolism in S9 fractions): 1.13 h
Structure (SMILES): Cc1ccc(Cn2c(=N)n(CC(O)c3ccc(Cl)c(Cl)c3)c3ccccc32)cc1 (stereo not shown) [Compound 130699]
acute reaction after injection [2]: abdominal guarding and decreased activity for up to one hour
